{"source": "patent US5763430A", "about": "“Method of treating a viral infection by administering a steroid compound” (priority 1995, dated 1998)", "key": {"[1]": {"test_system": "human foreskin fibroblasts", "experiment": "growth inhibition of fibroblasts in vitro (absorbance at 600 nm)", "format": "cell-based", "conditions": "10 μg/ml, FIG. 3C"}, "[2]": {"test_system": "chick chorioallantoic membrane", "experiment": "chorioallantoic membrane (CAM) model, inhibition of capillary growth", "format": "in vivo", "conditions": "3-Day embryo", "source_text": "The growing capillaries within the chorioallantoic membrane model (CAM model) have been used as a system in which to evaluate the effect of agents on their potential to inhibit new vessel growth. Neovascularization occurs most aggressively over the first week of embryonic development. Thereafter capillary growth is characterized by principally \"elongation\" rather than \"de novo\" formation.\nIn the standard assay, agents are applied locally to a region of the embryo over which neovascularization will occur. Agents are assessed by their ability to inhibit this process, as evaluated by visual examination about 7 days after application. […] The assay utilized is described in detail in Auerbach et al., Pharm. Ther. 51, 1991, 1-11."}, "[3]": {"test_system": "melanoma 1205Lu", "experiment": "suppression of growth of human melanoma in immunocompromised (RAG-1) mice", "format": "in vivo, human melanoma in mouse", "conditions": "FIG. 5, listed as Squalamine", "source_text": "As apparent from FIG. 5, melanoma 1205Lu develops aggressively in RAG-1 mice after implantation."}, "[4]": {"test_system": "S. aureus", "experiment": "antibiotic activity (MIC)", "format": "cell-based", "conditions": "Staphylococcus aureus; S. aureus; read-out: MIC", "source_text": "(§1) Thus, it is possible to achieve an antimicrobial steroid with or without squalamine-like pharmacological activity."}, "[5]": {"test_system": "P. aerug", "experiment": "antibiotic activity (MIC)", "format": "cell-based", "conditions": "P. aerug; read-out: MIC", "source_text": "as §1"}, "[6]": {"test_system": "C. albicans", "experiment": "antibiotic activity (MIC)", "format": "cell-based", "conditions": "Candida albicans; C. albicans; read-out: MIC", "source_text": "as §1"}, "[7]": {"test_system": "E. coli", "experiment": "antibiotic activity (MIC)", "format": "cell-based", "conditions": "Escherichia coli; E. coli; read-out: MIC", "source_text": "as §1"}}, "note": "Entries after “also recorded” stand apart in the source; their conditions may differ."}
{"smiles": "CC(C)[C@@H](CC[C@@H](C)[C@H]1CC[C@H]2[C@@H]3[C@H](O)C[C@H]4C[C@@H](NCCCNCCCCN)CC[C@]4(C)[C@H]3CC[C@]12C)OS(=O)(=O)O", "note": "[Compound 1256]", "values": [{"measurement": "growth of fibroblasts", "setting": "[1]", "result": "no effect on the growth"}, {"measurement": "Percentage positive", "setting": "[2]; 0.65 μg, Assay 1", "result": 28, "unit": "Percentage"}, {"measurement": "Percentage positive", "setting": "[2]; 1.25 μg, Assay 1", "result": 18, "unit": "Percentage"}, {"measurement": "Percentage positive", "setting": "[2]; 1.25 μg, Assay 2", "result": 18, "unit": "Percentage"}, {"measurement": "Percentage positive", "setting": "[2]; 1.25 μg, Mean", "result": 18, "unit": "Percentage"}, {"measurement": "Percentage positive", "setting": "[2]; 2.5 μg, Assay 1", "result": 35, "unit": "Percentage"}, {"measurement": "Percentage positive", "setting": "[2]; 2.5 μg, Assay 2", "result": 18, "unit": "Percentage"}, {"measurement": "Percentage positive", "setting": "[2]; 2.5 μg, Mean", "result": 27, "unit": "Percentage"}, {"measurement": "Percentage positive", "setting": "[2]; 5.0 μg, Assay 1", "result": 91, "unit": "Percentage"}, {"measurement": "Percentage positive", "setting": "[2]; 5.0 μg, Assay 2", "result": 57, "unit": "Percentage"}, {"measurement": "Percentage positive", "setting": "[2]; 5.0 μg, Mean", "result": 74, "unit": "Percentage"}, {"measurement": "Percentage positive", "setting": "[2]; 20 μg, Assay 1, some vascular irritation", "result": 52, "unit": "Percentage"}, {"measurement": "Percentage positive", "setting": "[2]; 20 μg, Assay 2, some vascular irritation", "result": 58, "unit": "Percentage"}, {"measurement": "Percentage positive", "setting": "[2]; 20 μg, Mean", "result": 55, "unit": "Percentage"}, {"measurement": "Percentage positive", "setting": "[2]; 40 μg, Assay 1, some vascular irritation", "result": 50, "unit": "Percentage"}, {"measurement": "Percentage positive", "setting": "[2]; 40 μg, Assay 2, some vascular irritation", "result": 13, "unit": "Percentage"}, {"measurement": "Percentage positive", "setting": "[2]; 40 μg, Mean", "result": 32, "unit": "Percentage"}, {"measurement": "vascular irritation", "setting": "[2]; 20 and 40 μg", "result": "Some vascular irritation noted"}, {"measurement": "growth of melanoma 1205Lu", "setting": "[3]", "result": "suppress the growth of melanoma 1205Lu in RAG-1 mice in a dose-dependent fashion; also recorded: clear suppression of tumor growth in a dose-dependent fashion"}, {"measurement": "MIC", "setting": "[4]", "result": "0.5 to 1", "unit": "µg/mL"}, {"measurement": "MIC", "setting": "[5]", "result": 16, "unit": "µg/mL"}, {"measurement": "MIC", "setting": "[6]", "result": 8, "unit": "µg/mL"}, {"measurement": "MIC", "setting": "[7]", "result": "2 to 4", "unit": "µg/mL"}]}
